pIC50: −log10 of the molar value. Read-outs that look alike come from different tables or passages of the source.
Assays:
angiogenesis = conditions: previously demonstrated; cited from earlier work
[1] = tested on: Human umbilical vein endothelial cells (HUVEC); assay: HUVEC angiogenesis (network formation on Matrigel) assay; type: cell-based; conditions: 24 h incubation, 1-100 μM, read-out: Inhibition of HUVEC network formation IC50
Protocol: Mebendazole was dissolved in 50 μl of DMSO and diluted with endothelial growth medium (EGM) to a final concentration of 1 mM. The highest concentration of DMSO is 0.1%. Human umbilical vein endothelial cells (HUVEC) were purchased from Cambrex Co. (East Rutherford, N.J., USA) and maintained in endothelial growth medium (EGM) supplemented with 2% FBS, 0.1% EGF, 0.1% hydrocortisone, 0.1% GA-1000, and 0.4% BBE. Morphogenesis assay on Matrigel was performed according to the manufacturer's instructions (Chemicon International). The ECMatrix™ kit consists of laminin, collagen type IV, heparan sulfate, proteoglycans, entactin, and nidogen. It also contains various growth factors (TGF-beta, FGF) and proteolytic enzymes (plasminogen, tPA, and MMPs) that are normally produced in EHS tumors. The incubation condition was optimized for maximal tube-formation as follows: 50 μl of EC Matrix™ was suitably diluted in a ratio 9:1 with 10× diluent buffer and used to coat the 96-well plate. The coated plates were incubated at 37° C. for 1 hr to allow the Matrix solution to solidify. HUVECs were cultured for 24 h in EGM with 2% FBS, trypsinized and re-suspended in the growth medium. […]
The efficiency of Mebendazole to inhibit the VEGFR2 kinase was measured by monitoring the ability of HUVECs to form networks.

VEGFR2 = VEGFR2 (Homo sapiens, UniProt P35968); conditions: read-out: VEGFR2 kinase activity IC50; 450 uM ATP, 60 minutes at room temperature, duplicate wells
VEGFR2, sequence (P35968 20-1356, species assumed): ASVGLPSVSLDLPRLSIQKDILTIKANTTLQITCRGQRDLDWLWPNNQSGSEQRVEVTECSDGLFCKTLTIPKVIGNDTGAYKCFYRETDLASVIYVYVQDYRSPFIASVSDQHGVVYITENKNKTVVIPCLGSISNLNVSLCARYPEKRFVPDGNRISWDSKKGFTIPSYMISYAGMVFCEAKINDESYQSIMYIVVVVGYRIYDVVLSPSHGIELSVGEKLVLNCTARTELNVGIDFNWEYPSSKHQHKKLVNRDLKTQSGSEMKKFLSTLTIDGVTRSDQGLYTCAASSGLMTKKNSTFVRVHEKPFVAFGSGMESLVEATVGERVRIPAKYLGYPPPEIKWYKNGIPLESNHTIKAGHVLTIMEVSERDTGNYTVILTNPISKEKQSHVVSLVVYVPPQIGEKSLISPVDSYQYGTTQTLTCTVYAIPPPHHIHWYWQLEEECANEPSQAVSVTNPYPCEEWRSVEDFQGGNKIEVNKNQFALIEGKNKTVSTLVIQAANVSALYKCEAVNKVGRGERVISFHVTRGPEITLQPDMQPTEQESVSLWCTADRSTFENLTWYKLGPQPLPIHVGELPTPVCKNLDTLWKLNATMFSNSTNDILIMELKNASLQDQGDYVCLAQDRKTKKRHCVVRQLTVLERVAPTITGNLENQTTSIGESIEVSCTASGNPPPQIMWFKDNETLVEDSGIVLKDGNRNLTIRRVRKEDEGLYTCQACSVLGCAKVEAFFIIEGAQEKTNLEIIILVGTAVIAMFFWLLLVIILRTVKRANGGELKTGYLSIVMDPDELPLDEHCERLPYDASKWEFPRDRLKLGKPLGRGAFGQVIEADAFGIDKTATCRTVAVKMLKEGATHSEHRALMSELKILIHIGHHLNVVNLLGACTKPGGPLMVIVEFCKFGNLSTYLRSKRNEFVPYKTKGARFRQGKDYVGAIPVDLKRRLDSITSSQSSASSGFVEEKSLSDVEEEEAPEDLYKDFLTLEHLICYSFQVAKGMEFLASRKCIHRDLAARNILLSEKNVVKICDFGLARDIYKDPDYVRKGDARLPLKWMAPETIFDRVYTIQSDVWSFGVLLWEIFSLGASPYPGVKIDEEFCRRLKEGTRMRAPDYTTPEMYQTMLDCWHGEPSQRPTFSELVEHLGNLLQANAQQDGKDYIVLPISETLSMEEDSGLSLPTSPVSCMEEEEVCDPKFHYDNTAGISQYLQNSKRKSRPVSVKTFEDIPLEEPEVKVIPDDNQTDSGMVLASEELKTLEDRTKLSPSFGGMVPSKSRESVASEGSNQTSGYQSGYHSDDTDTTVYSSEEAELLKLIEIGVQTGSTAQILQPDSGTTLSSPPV
Protocol: The VEGFR2 kinase assay was performed by using the Caliper LabChip 3000 and a 12-sipper LabChip. […] The off-chip incubation mobility-shift kinase assay uses a microfluidic chip to measure the conversion of a fluorescent peptide substrate to a phosphorylated product. The reaction mixture, from a microtiter well plate, is introduced through a capillary sipper onto the chip, where the nonphosphorylated substrate and phosphorylated product are separated by electrophoresis and detected via laser-induced fluorescence.
The assay reaction is: Fluorescein-peptide+ATP→fluorescein-phosphopeptide+ADP, which is measured by charge separation of phosphorylated product and unphosphorylated substrate. […] Following addition of ATP, samples were incubated for 60 minutes at room temperature and the reaction was terminated by the addition of stop buffer containing 100 mM HEPES (pH 7.5), 7 mM EDTA, 0.015% Brij-35, 4% DMSO. Phosphorylated product and unphosphorylated substrate were separated by charge using electrophoretic mobility shift. The product formed is compared to control wells to determine inhibition or enhancement of enzyme activity.
IC50 curves were generated using GraphPad 5 and a standard 4-parameter non-linear regression model (log [inhibitor] vs response−variable slope). Data points correspond to the averages of duplicate wells, and error bars represent the mean±replicate % activity.

[2] = tested on: MDA-MB-231 invasive breast cancer cell line; assay: Growth inhibition of MDA-MB-231 cells, MTS assay; type: cell-based; conditions: Homo sapiens, 48 hrs exposure
Protocol: MDA-MB-231 cells were seeded at 4000 cells/well in a 96 well plate. […] Three wells per concentration were treated 24 h post seeding, and the MTS assay was performed 48 h post treatment. The CellTiter96 Aqueous Non-Radioactive Cell Proliferation Assay kit (Promega) was used according to the manufacturer's recommendations. The absorbance values were measured at 490 nm and viable cells presented as a percentage of the absorbance of DMSO-only treated cells. IC50 and R^2 values were calculated with the Graphpad Prism software.

[3] = rats; cited from earlier work
[4] = humans; cited from earlier work

CCCSc1ccc2nc(NC(=O)OC)[nH]c2c1 [Albendazole]
Inhibition of angiogenesis (angiogenesis): inhibit angiogenesis

COC(=O)Nc1nc2ccc(C(=O)c3ccccc3)cc2[nH]1 [Mebendazole]
pIC50 [1]: 5.06
pIC50 (VEGFR2): 5.44

Cc1ccc(-c2cc(C(F)(F)F)nn2-c2ccc(S(N)(=O)=O)cc2)cc1 [celecoxib]
pIC50 [2]: 4.40
Circulating levels [3]: 1 to 10 µM
Circulating levels [4]: 1 to 10 µM

Cc1ccc(C)c(-c2cc(C(F)(F)F)nn2-c2ccc(S(N)(=O)=O)cc2)c1 [dimethyl celecoxib]
pIC50 [2]: 4.44

— US20150324546A1, “METHOD FOR PREDICTING DRUG-TARGET INTERACTIONS AND USES FOR DRUG REPOSITIONING” (GEORGETOWN UNIVERSITY, priority 2012, published 2015)
